This note sets out measurements from patent US11230540B2, “Substituted triazole derivatives and uses thereof” (Bayer Pharma Aktiengesellschaft, priority 2017, dated 2022).

SMILES strings stand for the structures.

One assay has as its target T1, human V1a receptor (Homo sapiens, UniProt P37288).
T1 construct: expressed in transfected cells; host or cells: CHO K1 (Chinese hamster ovary), also stably transfected with a modified aequorin
Description: Cellular in vitro assay for vasopressin receptor activity, V1a receptor cell line (aequorin luminescence). It is filed as cell-based. The settings on record: for IC50: CHO cell line transfected with human V1a receptor, [Arg8]-vasopressin at EC50 concentration, read-out: IC50 hV1a; for ratio IC50 hV2/hV1a: selectivity ratio of the IC50 values hV2/hV1a. A digest of the protocol:
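Recombinant CHO K1 cells stably expressing human V1a receptor and aequorin, loaded with coelenterazine, were exposed to test compounds for 10 minutes before [Arg^8]-vasopressin at EC50 concentration. Calcium-triggered luminescence was measured immediately, giving IC50 values.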

The next assay addresses T2, human V2 receptor (Homo sapiens, UniProt P30518).
T2 construct: expressed in transfected cells; host or cells: CHO K1 (Chinese hamster ovary) expressing firefly luciferase under a CRE-responsive promoter
The assay is described as follows: Cellular in vitro assay for vasopressin receptor activity, V2 receptor cell line (CRE-luciferase). As to conditions: CHO cell line transfected with human V2 receptor; [Arg8]-vasopressin at EC50 concentration; read-out: IC50 hV2. In kind it is cell-based. A digest of the protocol:
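CHO K1 cells stably expressing human V2 receptor with CRE-driven firefly luciferase, plated the day before. Test compounds at various concentrations added together with [Arg^8]-vasopressin at EC50 concentration, 3 h at 37° C, 5% CO2. Luminescence read after Triton lysis and luciferin addition; IC50 values reported.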

T2 sequence (P30518 whole entry): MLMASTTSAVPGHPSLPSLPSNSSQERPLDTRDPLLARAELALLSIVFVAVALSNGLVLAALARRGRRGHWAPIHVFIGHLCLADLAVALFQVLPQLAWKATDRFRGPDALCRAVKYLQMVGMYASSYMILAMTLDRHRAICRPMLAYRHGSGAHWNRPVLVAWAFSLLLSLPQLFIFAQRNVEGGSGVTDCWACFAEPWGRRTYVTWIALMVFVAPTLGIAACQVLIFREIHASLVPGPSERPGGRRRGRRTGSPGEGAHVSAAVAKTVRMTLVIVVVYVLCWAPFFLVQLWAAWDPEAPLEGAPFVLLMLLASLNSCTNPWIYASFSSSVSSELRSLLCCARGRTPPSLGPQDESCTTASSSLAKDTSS
T1 sequence (P37288 whole entry): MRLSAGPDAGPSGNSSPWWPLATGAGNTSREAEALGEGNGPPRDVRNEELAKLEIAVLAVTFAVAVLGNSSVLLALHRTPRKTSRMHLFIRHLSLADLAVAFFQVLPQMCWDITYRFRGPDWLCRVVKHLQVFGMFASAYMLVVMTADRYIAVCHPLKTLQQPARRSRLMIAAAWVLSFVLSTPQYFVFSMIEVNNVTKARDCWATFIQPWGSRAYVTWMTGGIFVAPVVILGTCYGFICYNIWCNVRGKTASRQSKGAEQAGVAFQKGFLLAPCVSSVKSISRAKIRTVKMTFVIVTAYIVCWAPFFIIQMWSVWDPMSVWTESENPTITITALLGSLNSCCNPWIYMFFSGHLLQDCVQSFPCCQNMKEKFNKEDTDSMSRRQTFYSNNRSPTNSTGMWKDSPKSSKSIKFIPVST

As a reminder, the IC50 is the midpoint of a concentration-inhibition curve. For `CC1(CNC(=O)c2nc(Cn3nc(-c4ccc(Cl)cc4)n(C[C@H](O)C(F)(F)F)c3=O)nn2-c2ncccc2C(F)(F)F)COC1` [Example 53, 3-({3-(4-Chlorophenyl)-5-oxo-4-[(2S)-3,3,3-trifluoro-2-hydroxypropyl]-4,5-dihydro-1H-1,2,4-triazol-1-yl}methyl)-N-[(3-methyloxetan-3-yl)methyl]-1-[3-(trifluoromethyl)pyridin-2-yl]-1H1,2,4-triazole-5-carboxamide], on human V1a receptor, the IC50 was 0.64 nM and the “ratio IC50 hV2/hV1a” value is 98.4. For the same compound, the IC50 at human V2 receptor was 63 nM.
As for `O=C(NCCC(F)(F)F)c1nc(Cn2nc(-c3ccc(Cl)cc3)n(C[C@H](O)C(F)(F)F)c2=O)nn1-c1ncccc1C(F)(F)F` [Example 54, 3-({3-(4-Chlorophenyl)-5-oxo-4-[(2S)-3,3,3-trifluoro-2-hydroxypropyl]-4,5-dihydro-1H-1,2,4-triazol-1-yl}methyl)-1-[3-(trifluoromethyl)pyridin-2-yl]-N-(3,3,3-trifluoropropyl)-1H-1,2,4-triazole-5-carboxamide], on human V1a receptor, the IC50 was 0.78 nM and the “ratio IC50 hV2/hV1a” value is reported as 107.1. Moreover, the IC50 at human V2 receptor stood at 83.5 nM.
Taken in the same sequence, the figures for `O=C(NCC1(O)CC1)c1nc(Cn2nc(-c3ccc(Cl)cc3)n(C[C@H](O)C(F)(F)F)c2=O)nn1-c1ncccc1C(F)(F)F` [Example 55, 3-({3-(4-Chlorophenyl)-5-oxo-4-[(2S)-3,3,3-trifluoro-2-hydroxypropyl]-4,5-dihydro-1H-1,2,4-triazol-1-yl}methyl)-N-[(1-hydroxycyclopropyl)methyl]-1-[3-(trifluoromethyl)pyridin-2-yl]-1H1,2,4-triazole-5-carboxamide] were 1.54 nM, 47.2 and 72.5 nM.
On the same counts, the results for `CC1(C)CN(C(=O)c2nc(Cn3nc(-c4ccc(Cl)cc4)n(C[C@H](O)C(F)(F)F)c3=O)nn2-c2ncccc2C(F)(F)F)CCO1` [Example 56, 5-(4-Chlorophenyl)-2-({5-(2,2-dimethylmorpholine-4-carbonyl)-1-[3-(trifluoromethyl)pyridin-2-yl]-1H-1,2,4-triazol-3-yl}methyl)-4-[(2S)-3,3,3-trifluoro-2-hydroxypropyl]-2,4-dihydro-3H-1,2,4-triazol-3-one] are 1.1 nM, 214.6 and 235 nM.
Taken in the same sequence, the figures for `CC1(O)CCN(C(=O)c2nc(Cn3nc(-c4ccc(Cl)cc4)n(C[C@H](O)C(F)(F)F)c3=O)nn2-c2ncccc2C(F)(F)F)C1` (stereo partly drawn) [Example 57, 5-(4-Chlorophenyl)-2-({5-[(35)-3-hydroxy-3-methylpyrrolidine-1-carbonyl]-1-[3-(trifluoromethyl)pyridin-2-yl]-1H-1,2,4-triazol-3-yl}methyl)-4-[(2S)-3,3,3-trifluoro-2-hydroxypropyl]-2,4-dihydro-3H-1,2,4-triazol-3-one] were 2.75 nM, 160.0 and 440 nM.
Consider `O=C(c1nc(Cn2nc(-c3ccc(Cl)cc3)n(C[C@H](O)C(F)(F)F)c2=O)nn1-c1ncccc1C(F)(F)F)N1CC(O)(C(F)(F)F)C1` [Example 58, 5-(4-Chlorophenyl)-2-({5-[3-hydroxy-3-(trifluoromethyl)azetidine-1-carbonyl]-1-[3-(trifluoromethyl)pyridin-2-yl]-1H-1,2,4-triazol-3-yl}methyl)-4-[(2S)-3,3,3-trifluoro-2-hydroxypropyl]-2,4-dihydro-3H-1,2,4-triazol-3-one], for which the results for the IC50 on human V1a receptor and on human V2 receptor were 1.35 nM and 435 nM, respectively. Also, the “ratio IC50 hV2/hV1a” value on human V1a receptor came to 322.2.
